Source: PMC6435658, “Investigation into the Molecular Mechanisms underlying the Anti-proliferative and Anti-tumorigenesis activities of Diosmetin against HCT-116 Human Colorectal Cancer” (Scientific Reports, 2019)
In brackets after ≈: the same amount, converted by molar mass.

Columns and labels:
HCT-116 cells [1] = assay: MTT cytotoxicity assay, HCT-116; format: cell-based, human; details: for IC50: Homo sapiens, MTT
Protocol: (§1) Cytotoxicity property of Dis against HCT-116 and CCD-841 cells were measured by MTT assay as described by Mossman[77]. Briefly, cells were treated with different concentration of Dis and 5-Fu (positive control) with serial dilution factor of 2 for 8 concentrations in 96 well-plate for different time points (24 h, 48 h and 72 h). Subsequently at the end of each time point 20 µl of MTT (5 mg/ml, Affymetrix,Cleveland, OH, USA) were added to each well followed by 4 h incubation. The solutions were aspirated after 4 h and 100 µl of DMSO were added to each well. Absorbance for each well was read at 570 nm as measured by using microplate reader (Tecan Infinite multimode, Männedorf, Switzerland). Cytotoxicity (cell death) was measured by using the following formula: Celldeath(%)=sampleOD−controlOD/controlOD100
(§2) This assay was performed in triplicates in three independent experiments. The cytotoxicity property of Dis was presented as IC50 value.

CCD-841 cells = assay: MTT cytotoxicity assay, CCD-841 normal colon cells; format: cell-based; details: Homo sapiens, CCD-841 non cancerous cells
Protocol: as §1, §2

HCT-116 cells [2] = assay: Annexin-V-FITC apoptosis assay; format: cell-based, human
Protocol: Inductions of early and late stages of apoptosis by Dis were investigated using Annexin-V-FITC assay according to the manufacturer’s instructions (BD Biosciences, San Jose, CA, USA). Briefly, 10^6 HCT-116 cells were seeded in 25 cm^2 flask followed by treatment with Dis for 24 h, 48 h and 72 h. Treated cells were harvested and washed twice with cold PBS and suspended in binding buffer followed by transferred of 10^5 cells to the 6 ml polystyrene round-bottom FACS tubes. Cells were incubated with 5 µl of PI and 5 µl of Annexin-V-FITC and introduced to the FACSCanto™II instrument (BD, San Jose, CA, USA).

caspase 8 = assay: Caspase-Glo 8 bioluminescent assay; format: cell-based, human; details: HCT-116, 24 h, 48 h, 72 h, time dependent
Protocol: To assess the effect of Dis on caspase cascades in treated cells, activities of caspase-Glo 3/7, caspase-Glo 8 and caspase-Glo 9 assays (Promega, Madison, WI, USA) were performed. Briefly, HCT-116 cells with the density of 10^4 cells/well were seeded in 96 well-plates. Cells were treated with Dis for 24 h, 48 h and 72 h. This assay was performed in triplicates for each time point. A total of 6 wells were preserved for samples without cells but with media and reagents as the blank samples, and for the untreated cells as negative control. At the end of incubation time, 100 µl caspase-glo mixture were added to each well and incubated for 1 h in the dark according to the manufacturer’s instructions. Optical density was measured via multimode microplate reader (Tecan Infinite, Männedorf, Switzerland).

NF-κB = assay: Translocation of NF-κB induced by TNF-α; format: cell-based, human; details: HCT-116 stimulated with TNF-α, vs untreated group
Protocol: Confocal microscope was used to detect the suppressive effect of Dis on translocation of NF-κB from cytoplasm to nucleus induced by TNF-α (Santa Cruz, CA, USA) using cellomics nucleus factor-κB (NF-κB) activation kit (Thermo Scientific™, Pittsburgh, PA, USA). HCT-116 cells were seeded and treated with Dis at different time points in 24 well-plate covered with cover slide. An amount of 150 ng/ml of TNF-α was used as a stimulator for 24 h. Cells were then fixed and stained according to the manufacturer’s instructions. Translocation of NF-κB was investigated via confocal Leica TCS SP5 II microscope (Leica Microsystems, Mannheim, Germany) and intensity of NF-κB was measured by using LAS X software.

SK-Hep-1 = tested on: SK-Hep-1; set-up: method as in PMID 19424633, PMID 27176768, PMID 26847170, PMID 20183323; details: SK-Hep-1, 24 h; ref [10],[13],[15],[47]; cited from earlier work

cleavage of caspase 8 (caspase 8): significantly increased
Structure (SMILES): COc1ccc(-c2cc(=O)c3c(O)cc(O)cc3o2)cc1O [Dis, Diosmetin]
IC50 (HCT-116 cells [1]; HCT-116, 24 h): 5.56 ± 0.48 µg/mL (≈ 18.5 µM)
IC50 (HCT-116 cells [1]; HCT-116, 48 h): 3.58 ± 0.58 µg/mL (≈ 11.9 µM)
IC50 (HCT-116 cells [1]; HCT-116, 72 h): 3.41 ± 0.64 µg/mL (≈ 11.4 µM)
Selectivity Index (SI) (HCT-116 cells [1]; IC50 CCD-841 / IC50 HCT-116, 24 h): 42.53
Selectivity Index (SI) (HCT-116 cells [1]; IC50 CCD-841 / IC50 HCT-116, 48 h): 14.51
Selectivity Index (SI) (HCT-116 cells [1]; IC50 CCD-841 / IC50 HCT-116, 72 h): 11.88
IC50 (CCD-841 cells; 24 h): 236 ± 9.99 µg/mL (≈ 788 µM)
IC50 (CCD-841 cells; 48 h): 51.95 ± 0.11 µg/mL (≈ 173 µM)
IC50 (CCD-841 cells; 72 h): 40.5 ± 9.99 µg/mL (≈ 135 µM)
Late apoptosis (HCT-116 cells [2]; HCT-116, 24 h): 18 ± 3.6%
Late apoptosis (HCT-116 cells [2]; HCT-116, 48 h): 26.3 ± 3.6%
Late apoptosis (HCT-116 cells [2]; HCT-116, 72 h): 53.15 ± 4.35%
population of cells in early apoptosis (HCT-116 cells [2]; HCT-116, 72 h of treatment): 7.7 ± 0%
translocation of NF-ƙB (NF-κB): significantly reduced
IC50 (SK-Hep-1): 100 µg/mL (≈ 333 µM)
